This note sets out measurements from US20240343779A1, “PHARMACOLOGICAL AND/OR GENETIC ACTIVATOR FOR USE IN PRESERVING AND REGENERATING MUSCLE STRUCTURE AND FUNCTION BY BLOCKING SENESCENCE” (ASSOCIATION FRANCAISE CONTRE LES MYOPATHIES, priority 2021, published 2024).

What all share (assay type): cell-based, rat
Assay [1] has as its system myoblasts isolated from the WT EOMs. Put plainly: Myogenic differentiation (MF20 staining, fusion index) of EOM myoblasts. The conditions noted are these: 10 μM, 7 days, vs DMSO. As to the method:
For this, the cells were fixed with 4% PFA for 10 minutes at 4° C. and permeabilized with 0.5% Triton in 1×PBS for 6 minutes. After blocking with 10% BSA for 30 minutes at room temperature, the cells were incubated O/N at 4° C. with the following primary antibodies: Pax7 (Santa Cruz Biotechnology, sc-81648), MyoD (Dako, clone 5.8A, M3512), ki67 (Abcam, sp6 ab16667), sarcomeric myosin heavy chain (MF20, DSHB, AB_2147781).
The cell suspension was passed through cell filters and centrifuged at 600 g/minute for 5 minutes, at 4° C. The supernatant was removed and the cell pellet was resuspended in 20% fetal bovine serum (Cat #S1810-500 Dominique Dutscher) in DMEM (Cat #41966-029 Gibco) supplemented by 25 ng/mL of bFGF (RP4037, Sigma-Aldrich) with […] of penicillin/streptomycin (354234, Life Sciences) covered with matrigel (Sarstedt, #94.6140.802). The cells were grown for 48 hours to evaluate the proliferation. After 48 h of proliferation, the cells were cultured for 5 days in 5% fetal bovine serum to induce differentiation.
(§1) For this, the myoblasts derived from MSC were treated with 10 μM of ML224 (HY12381-S, CliniSciences) for 2 days (proliferation) or 7 days (differentiation) or 20 μM of forskolin (F3917, Sigma-Aldrich) (following experiment) only for 48 h. The control cells were treated with DMSO (D8418, Sigma Aldrich) as a vehicle for ML224 and forskolin.

Assay [2] shares this test system. Put plainly: EdU proliferation of EOM-derived myoblasts treated with TSHR antagonist. The conditions noted are these: 10 μM, 2 days, serum-free, EdU pulse 24 h, vs DMSO. The method, then:
To evaluate the functional importance of the expression of TSHR in the MSCs of the EOMs, the myoblasts were isolated from the WT EOMs and treated with a selective antagonist of the TSH receptor, ML224 (Neumann et al., 2014).
as §1
The proliferation was measured after 24 h of culture by adding to the culture medium a pulse of […] of 5-ethynyl-20-deoxyuridine (EdU) for 24 h (EdU Click-iT PLUS Kit C10640, Life Technologies).
This experiment is carried out under serum-free conditions in order to prevent any stimulation of TSHR by the presence of TSH in the serum, which explains the lowest proliferative capacity of the myoblasts of the EOMs treated with the vehicle, relative to the data presented above (FIG. 3I).

The subject of assay [3] is Cdkn1a (p21) and Cdkn2a (p16) expression in EOM-derived myoblasts. The experiment in a line: qPCR of senescence markers in EOM-derived myoblasts. The conditions noted are these: EOM satellite cells in culture, 10 μM, vs DMSO. The method, then: The absence of Cdkn1a and Cdkn2a transcripts is also validated as well as the specific expression of TSHR on muscle satellite cells freshly isolated from EOMs by qRT-PCR (FIG. 6D): The RNA is extracted using the total RNA isolation kit RNAqueous-Micro (Invitrogen) and back-transcribed using SuperScript™ III reverse transcriptase (Invitrogen, 18080093) according to the manufacturer's instructions.
The qPCR is carried out using the StepOnePlus real-time PCR system (Applied Biosystems) and SYBR Green detection tools (Applied Biosystems).
The results are reported as relative gene expression (2-DDCT) using the vehicle-treated cells or the extra-ocular derived myoblasts as a reference. Gene expression is normalized on the expression levels of β-actin.
as §1

`COc1ccc(C2Nc3ccccc3C(=O)N2Cc2ccco2)cc1COc1c(C)cc(NC(C)=O)cc1C` (centres unmarked) [ML224]: in assay [1], the “Differentiation / formation of myotubes” value is reported as “differentiation defects” and the “Fusion index compared to vehicle control” value is on record as “significant reduction”. Also, the “Proliferative myoblasts (Pax7+/MyoD+/EdU+ cells) relative to vehicle” value in assay [2] is recorded as “significant decrease”. Moreover, in assay [3], the “Expression of Cdkn1a (p21)” value is on record as “induced the expression” and the “Expression of Cdkn2a (p16)” value is reported as “induced the expression”.
